Values of other authors, collected in patent US20160000731A1, “SORE-THROAT COMPOSITIONS AND RELATED METHODS” (Xlear, Inc., priority 2014, published 2016).

What was measured:
dental caries = details: regular consumption
Streptococcus pneumonia = details: in vitro, during its logarithmic growth phase

OC[C@@H](O)[C@H](O)[C@@H](O)CO [Xylitol]
incidence of dental caries (dental caries): reduce the incidence of dental caries | growth of Streptococcus pneumonia (Streptococcus pneumonia): inhibit the growth
